Experimental findings from patent publication US9890166B2, “Imidazopyrrolidine derivatives and their use in the treatment of disease” (NOVARTIS AG, priority 2013, dated 2018) are described below.

The target in test [1] is BRD4 (His-Brd4(44-477)) (Homo sapiens (Human), UniProt O60885). Nature of the test: TR-FRET in-vitro binding assay for BRD4. To be noted: single determination or n ≧ 2 independent determinations, read-out: Biochemical IC50 BRD4. A digest of the protocol:
(§1)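 In this TR-FRET format, each compound was tested as an 8-point dilution series, single point per concentration, dispensed from 90% DMSO solution. Incubation lasted 35 minutes at 30° C.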

In test [2] the target is BRD2 (His-Brd2(60-472)) (Homo sapiens (Human), UniProt P25440). Nature of the test: TR-FRET in-vitro binding assay for BRD2. To be noted: single determination or n ≧ 2 independent determinations, read-out: Biochemical IC50 BRD2. A digest of the protocol:
as §1

The test system of test [3] is K-562 cells. The experiment in a line: Cell growth inhibition assay (CellTiter-Glo), K-562.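 As to all read-outs here: cellular ATP measured by luminescence after 4 days of exposure, 3-fold dilution series from 10 µM, DMSO vehicle-treated cells define 100%, cell-free medium wells −100%.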 The conditions noted are these: for GI50: Homo sapiens, K562, read-out: K-562 GI50; for K-562 TGI: K-562 cells, total growth inhibition, CellTiter-Glo.
Test [4] has as its system THP-1 cells. The experiment in a line: Cell growth inhibition assay (CellTiter-Glo), THP-1.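 As to all read-outs here: viability read as cellular ATP luminescence after 4 days, 3-fold dilution series from 10 µM, DMSO vehicle-treated cells taken as 100%, cell-free medium wells as −100%.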 The conditions noted are these: for GI50: Homo sapiens, THP-1, read-out: THP-1 GI50; for THP-1 TGI: THP-1 cells, total growth inhibition, CellTiter-Glo.
The test system of test [5] is MV-4-11 cells. The experiment in a line: Cell growth inhibition assay (CellTiter-Glo), MV-4-11.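 As to all read-outs here: cellular ATP luminescence after 4 days, 3-fold dilution series from 10 µM top dose, vehicle (0.1% DMSO) set to 100%, cell-free medium set to −100%, day 0 corrected.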 The conditions noted are these: for GI50: Homo sapiens, MV4-11, read-out: MV-4-11 GI50; for MV-4-11 TGI: MV-4-11 cells, total growth inhibition, CellTiter-Glo.
The target of test [6] is CREBBP bromodomain (His-CREBBP(1081-1197)) (Homo sapiens (Human), UniProt Q92793). Nature of the test: AlphaScreen in-vitro binding assay for CREBBP. The conditions noted are these: single determination or n ≧ 2 independent determinations, read-out: Biochemical IC50 CREBBP. A digest of the protocol: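 Detection used nickel-chelate acceptor plus streptavidin donor AlphaScreen beads, 1 h room temperature. Percent inhibition fitted by non-linear regression to IC50.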

The target of test [7] is nuclear BRD4-NUT foci in HCC2494 NUT midline carcinoma cells (Homo sapiens, UniProt O60885). Nature of the test: cell-based.
Test [8] deals with BRD3 (His-Brd3(20-477)) (Homo sapiens (Human), UniProt Q15059). Nature of the test: TR-FRET in-vitro binding assay for BRD3. To be noted: single determination or n ≧ 2 independent determinations, read-out: Biochemical IC50 BRD3. A digest of the protocol: as §1
Chain of BRD3 (His-Brd3(20-477)) (Q15059 20-477): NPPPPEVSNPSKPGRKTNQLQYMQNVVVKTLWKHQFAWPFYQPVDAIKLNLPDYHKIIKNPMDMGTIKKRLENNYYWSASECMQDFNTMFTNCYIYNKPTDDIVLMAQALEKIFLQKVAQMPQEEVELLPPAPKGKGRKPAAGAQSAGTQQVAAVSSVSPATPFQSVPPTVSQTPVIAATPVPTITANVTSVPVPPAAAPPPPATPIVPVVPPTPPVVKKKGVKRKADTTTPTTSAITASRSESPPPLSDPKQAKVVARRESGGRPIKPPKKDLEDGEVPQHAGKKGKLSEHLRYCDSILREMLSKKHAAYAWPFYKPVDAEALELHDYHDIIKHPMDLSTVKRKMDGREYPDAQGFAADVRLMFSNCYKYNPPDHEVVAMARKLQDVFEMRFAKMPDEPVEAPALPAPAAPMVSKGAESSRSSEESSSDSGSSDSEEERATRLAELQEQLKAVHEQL

Chain of BRD2 (His-Brd2(60-472)) (P25440 60-472): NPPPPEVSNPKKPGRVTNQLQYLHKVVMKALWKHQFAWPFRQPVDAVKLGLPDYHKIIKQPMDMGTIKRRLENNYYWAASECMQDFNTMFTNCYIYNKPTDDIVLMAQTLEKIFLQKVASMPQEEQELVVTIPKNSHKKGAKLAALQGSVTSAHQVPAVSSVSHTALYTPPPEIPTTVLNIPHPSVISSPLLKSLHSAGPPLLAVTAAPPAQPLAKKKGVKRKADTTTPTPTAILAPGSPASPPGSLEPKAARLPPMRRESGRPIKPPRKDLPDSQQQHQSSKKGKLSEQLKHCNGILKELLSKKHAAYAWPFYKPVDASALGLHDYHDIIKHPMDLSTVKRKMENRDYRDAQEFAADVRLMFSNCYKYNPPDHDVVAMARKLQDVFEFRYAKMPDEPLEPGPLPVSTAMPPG
Chain of CREBBP bromodomain (His-CREBBP(1081-1197)) (Q92793 1081-1197): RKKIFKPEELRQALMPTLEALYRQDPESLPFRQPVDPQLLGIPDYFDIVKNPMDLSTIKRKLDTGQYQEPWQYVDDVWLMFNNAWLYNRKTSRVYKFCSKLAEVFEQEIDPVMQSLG

With `Cc1cc(N2C(=O)c3[nH]c(C4CC4)nc3[C@H]2c2ccc(Cl)cc2)cn(C)c1=O` [Example 47, R-6-(4-chlorophenyl)-2-cyclopropyl-5-(1,5-dimethyl-6-oxo-1,6-dihydropyridin-3-yl)-5,6-dihydropyrrolo[3,4-d]imidazol-4(3H)-one], the IC50 in test [1] amounted to 40 nM; in test [2], 39 nM; in test [6], 1100 nM; in test [7] it was 81.3 nM; in test [8] it was 38 nM. Further, the GI50 in test [3] was 305 nM; in test [4], 74.3 nM; in test [5] it was 42.5 nM. Also, the “K-562 TGI” value in test [3] was more than 10000 nM. Moreover, in test [4], the “THP-1 TGI” value was found to be 141 nM. Besides, in test [5], the “MV-4-11 TGI” value amounted to 102.8 nM.
Consider `COc1ccc(-c2nc3c(n2C(C)C)C(c2ccc(Cl)cc2)N(c2cc(OC)c4nnc(C)n4c2)C3=O)cn1` (centres unmarked) [Example 52, 6-(4-chlorophenyl)-1-isopropyl-5-(8-methoxy-3-methyl-[1,2,4]triazolo[4,3-a]pyridin-6-yl)-2-(6-methoxypyridin-3-yl)-5,6-dihydropyrrolo[3,4-d]imidazol-4(1H)-one], for which the IC50 in test [1] is 35 nM; in test [2], 80 nM; in test [6] it was more than 37000 nM; in test [7], 710 nM; in test [8], 63 nM. Further, the results for the GI50 in test [3], in test [4] and in test [5] were 2480 nM, 981 nM and 271 nM, respectively. Also, the “K-562 TGI” value in test [3] is more than 10000 nM. For the same molecule, the “THP-1 TGI” value in test [4] was 1920 nM. Also, the “MV-4-11 TGI” value in test [5] amounted to 409 nM.
As for `COc1cc(N2C(=O)c3nc(C4=CCOCC4)n(C(C)C)c3C2c2ccc(Cl)cc2)cn2c(C)nnc12` (centres unmarked) [Example 53, 6-(4-chlorophenyl)-2-(3,6-dihydro-2H-pyran-4-yl)-1-isopropyl-5-(8-methoxy-3-methyl-[1,2,4]triazolo[4,3-a]pyridin-6-yl)-5,6-dihydropyrrolo[3,4-d]imidazol-4(1H)-one], the IC50 in test [1] was 92 nM; in test [2], 220 nM; in test [6], more than 37000 nM; in test [7], 1330 nM; in test [8] it was 200 nM. Moreover, the 50% growth inhibitory concentration (GI50) in test [3] came to 7990 nM; in test [4], 1270 nM; in test [5], 505 nM. The “K-562 TGI” value in test [3] was more than 10000 nM. Moreover, the “THP-1 TGI” value in test [4] was determined as 3740 nM. Moreover, the “MV-4-11 TGI” value in test [5] turned out to be 939 nM.
As for `COc1ncc(-c2nc3c(n2C)C(c2ccc(Cl)cc2)N(c2cc(OC)c4nnc(C)n4c2)C3=O)c(OC)n1` (centres unmarked) [Example 54, 6-(4-chlorophenyl)-2-(2,4-dimethoxypyrimidin-5-yl)-5-(8-methoxy-3-methyl-[1,2,4]triazolo[4,3-a]pyridin-6-yl)-1-methyl-5,6-dihydropyrrolo[3,4-d]imidazol-4(1H)-one], the half-maximal inhibitory concentration (IC50) was 59 nM in test [1]; 120 nM in test [2]; more than 37000 nM in test [6]; 3390 nM in test [7]; 98 nM in test [8]. Further, the GI50 in test [3] was more than 10000 nM; in test [4] it was 3710 nM; in test [5], 2100 nM. Also, the “K-562 TGI” value in test [3] was more than 10000 nM. Also, the “THP-1 TGI” value in test [4] was more than 10000 nM. In addition, in test [5], the “MV-4-11 TGI” value is 3600 nM.
Consider `COc1ccc(-c2nc3c(n2C)C(c2ccc(Cl)cc2)N(c2cc(OC)c4nnc(C)n4c2)C3=O)cn1` (centres unmarked) [Example 55, 6-(4-chlorophenyl)-5-(8-methoxy-3-methyl-[1,2,4]triazolo[4,3-a]pyridin-6-yl)-2-(6-methoxypyridin-3-yl)-1-methyl-5,6-dihydropyrrolo[3,4-d]imidazol-4(1H)-one], for which the concentration for half-maximal inhibition (IC50) in test [1] is 56 nM; in test [2], 110 nM; in test [6], more than 37000 nM; in test [7], 2800 nM; in test [8], 92 nM. Besides, the GI50 in test [3] came out at 7250 nM; in test [4] it was 2000 nM; in test [5], 706 nM. Also, the “K-562 TGI” value in test [3] is more than 10000 nM. The “THP-1 TGI” value in test [4] was 4410 nM. Further, in test [5], the “MV-4-11 TGI” value is 1060 nM.
Consider `COc1cc(N2C(=O)c3nc(C4CC4)n(C)c3C2c2ccc(Cl)cc2)cn2c(C)nnc12` (centres unmarked) [Example 56, 6-(4-chlorophenyl)-2-cyclopropyl-5-(8-methoxy-3-methyl-[1,2,4]triazolo[4,3-a]pyridin-6-yl)-1-methyl-5,6-dihydropyrrolo[3,4-d]imidazol-4(1H)-one], for which the IC50 was 130 nM in test [1]; 290 nM in test [2]; more than 37000 nM in test [6]; 1210 nM in test [7]; 210 nM in test [8]. The values for the GI50 in test [3], in test [4] and in test [5] were 3230 nM, 1240 nM and 816 nM, respectively. For the same molecule, the “K-562 TGI” value in test [3] is more than 10000 nM. In addition, the “THP-1 TGI” value in test [4] stood at 3670 nM. The “MV-4-11 TGI” value in test [5] is 1340 nM.
Consider `Cc1cc(N2C(=O)c3nc(C4CC4)n(C)c3C2c2ccc(Cl)cc2)cn2c(C)nnc12` (centres unmarked) [Example 57, 6-(4-chlorophenyl)-2-cyclopropyl-5-(3,8-dimethyl-[1,2,4]triazolo[4,3-a]pyridin-6-yl)-1-methyl-5,6-dihydropyrrolo[3,4-d]imidazol-4(1H)-one], for which the IC50 in test [1] was less than 11 nM; in test [2], less than 11 nM; in test [6] it was 5100 nM; in test [7] it was 91.2 nM; in test [8] it was less than 11 nM. Moreover, the 50% growth inhibitory concentration (GI50) worked out at 572 nM in test [3], 83.6 nM in test [4] and 40.5 nM in test [5]. Besides, in test [3], the “K-562 TGI” value is more than 10000 nM. For the same molecule, the “THP-1 TGI” value in test [4] amounted to 193 nM. Moreover, the “MV-4-11 TGI” value in test [5] came out at 68.8 nM.
On to `Cc1cc(N2C(=O)c3c(nc(C)n3C(C)C)[C@H]2c2ccc(Cl)cc2)cc2c1nnn2C` [Example 118, (R)-6-(4-chlorophenyl)-5-(3,7-dimethyl-3H-benzo[d][1,2,3]triazol-5-yl)-3-isopropyl-2-methyl-5,6-dihydropyrrolo[3,4-d]imidazol-4(3H)-one], for which the IC50 is less than 11 nM in test [1]; 14 nM in test [2]; 1080 nM in test [6]; 3.4 nM in test [7]; 12 nM in test [8]. In addition, the GI50 in test [3] was 28.4 nM; in test [4], 5.12 nM; in test [5] it was 2.1 nM. Also, the “K-562 TGI” value in test [3] is more than 10000 nM. In test [4], the “THP-1 TGI” value was found to be 12.5 nM. Besides, the “MV-4-11 TGI” value in test [5] came out at 3.79 nM.
Take `CCn1c(C)nc2c1C(=O)N(c1cc(C)c3nnn(C)c3c1)C2c1ccc(Cl)cc1` (centres unmarked) [Example 121, 6-(4-chlorophenyl)-5-(3,7-dimethyl-3H-benzo[d][1,2,3]triazol-5-yl)-3-ethyl-2-methyl-5,6-dihydropyrrolo[3,4-d]imidazol-4(3H)-one]: the 50% inhibitory concentration (IC50) in test [1] was determined as 29 nM; in test [2], 29 nM; in test [6], 4400 nM; in test [7], 3.07 nM; in test [8] it was 27 nM. Moreover, the figures for the 50% growth inhibitory concentration (GI50) in test [3], in test [4] and in test [5] were 48.1 nM, 9 nM and 10.8 nM, respectively. In addition, the “K-562 TGI” value in test [3] is more than 10000 nM. In addition, the “THP-1 TGI” value in test [4] was 20.1 nM. The “MV-4-11 TGI” value in test [5] was 20.9 nM.
Regarding `COc1ncc(-c2nc3c([nH]2)C(c2ccc(Cl)cc2)N(c2cc(OC)c4nnc(C)n4c2)C3=O)c(OC)n1` (centres unmarked) [Example 127, 6-(4-chlorophenyl)-2-(2,4-dimethoxypyrimidin-5-yl)-5-(8-methoxy-3-methyl-[1,2,4]triazolo[4,3-a]pyridin-6-yl)-5,6-dihydropyrrolo[3,4-d]imidazol-4(1H)-one], the IC50 in test [1] was 120 nM; in test [2] it was 360 nM; in test [6], more than 37000 nM; in test [7] it was 408 nM; in test [8], 480 nM. The GI50 in test [3] was determined as 1720 nM; in test [4] it was 377 nM; in test [5], 209 nM. For the same molecule, in test [3], the “K-562 TGI” value is more than 10000 nM. Moreover, the “THP-1 TGI” value in test [4] stood at 966 nM. In test [5], the “MV-4-11 TGI” value came to 317 nM.
